Source: patent US10682339B2, “Pharmaceutical compositions directly targeting FKBP52 for the treatment of prostate cancer and methods of using same” (THE BOARD OF REGENTS OF THE UNIVERSITY OF TEXAS SYSTEM, priority 2014, dated 2020)

How the values were obtained:
[1] = test system: 22Rv1 prostate cancer cells; assay: ELISA of PSA secretion from 22Rv1 cells in the presence and absence of hormone; type: cell-based; conditions: for inhibition of hormone-independent PSA secretion (ELISA): absence of hormone
Description: (§1) FIG. 3. The FKBP52-specific inhibitor GMC1 inhibits AR and GR activity. (A) Representative AR- and GR-mediated luciferase reporter assays in MDA-kb2 cells with a range of GMC1 concentrations. The average IC50 from 4 independent experiments are shown. (B) A representative luciferase reporter assay in 52KO mouse embryonic fibroblast cells in the presence or absence of FKBP52 were performed. Transfected cells were treated with DHT and a range of concentrations of GMC1 and assessed for AR-dependent expression of a luciferase reporter. The average IC50 of 3 independent assays is shown. (C-D) ELISA assays measuring androgen-dependent PSA secretion form LNCaP (C) and 22Rv1 (D) prostate cancer cells treated with the indicated concentrations of GMC1.
(§2) FIG. 4. GMC1 inhibits hormone-dependent and +independent PSA secretion and hormone dependent proliferation in 22Rv1 prostate cancer cells. (A) ELISA assay in 22Rv1 cells measuring GMC1 effects on PSA secretion in the presence and absence of hormone. (B) qPCR assay in 22Rv1 cells measuring endogenous PSA gene expression in the presence or absence of hormone. For comparison, GMC1, but not MJC13, inhibits hormone-independent PSA secretion and/or expression. (C) A BrdU incorporation assay was used to assess GMC1 effects on hormone-dependent 22Rv1 cell proliferation.

[2] = test system: FKBP52-regulated AR activity; assay: AR-dependent luciferase reporter assay in 52KO mouse embryonic fibroblast cells with or without FKBP52; type: cell-based; conditions: 52KO MEF cells, DHT treated
Description: as §1

[3] = test system: LNCaP prostate cancer cells; assay: ELISA of androgen-dependent PSA secretion from LNCaP cells; type: cell-based; conditions: preliminary
Description: as §1

[4] = test system: 22Rv1 prostate cancer cells; assay: qPCR of endogenous PSA gene expression in 22Rv1 cells; type: cell-based; conditions: absence of hormone
Excerpt: as §2

[5] = test system: 22Rv1 prostate cancer cells; assay: BrdU incorporation assay of hormone-dependent 22Rv1 cell proliferation; type: cell-based; conditions: 22Rv1 cells
Excerpt: as §2

[6] = test system: GR; assay: GR-mediated luciferase reporter assay in MDA-kb2 cells; type: cell-based
Description: as §1

[7] = test system: AR; assay: AR-mediated luciferase reporter assay in MDA-kb2 cells; type: cell-based; conditions: among 40 hits from the virtual screen
Description: as §1

[8] = target: T1, β-catenin interaction with AR (Homo sapiens, UniProt P10275); assay: β-catenin interaction with AR; conditions: targeting to the AR BF3 surface
T1 sequence (P10275 1-920): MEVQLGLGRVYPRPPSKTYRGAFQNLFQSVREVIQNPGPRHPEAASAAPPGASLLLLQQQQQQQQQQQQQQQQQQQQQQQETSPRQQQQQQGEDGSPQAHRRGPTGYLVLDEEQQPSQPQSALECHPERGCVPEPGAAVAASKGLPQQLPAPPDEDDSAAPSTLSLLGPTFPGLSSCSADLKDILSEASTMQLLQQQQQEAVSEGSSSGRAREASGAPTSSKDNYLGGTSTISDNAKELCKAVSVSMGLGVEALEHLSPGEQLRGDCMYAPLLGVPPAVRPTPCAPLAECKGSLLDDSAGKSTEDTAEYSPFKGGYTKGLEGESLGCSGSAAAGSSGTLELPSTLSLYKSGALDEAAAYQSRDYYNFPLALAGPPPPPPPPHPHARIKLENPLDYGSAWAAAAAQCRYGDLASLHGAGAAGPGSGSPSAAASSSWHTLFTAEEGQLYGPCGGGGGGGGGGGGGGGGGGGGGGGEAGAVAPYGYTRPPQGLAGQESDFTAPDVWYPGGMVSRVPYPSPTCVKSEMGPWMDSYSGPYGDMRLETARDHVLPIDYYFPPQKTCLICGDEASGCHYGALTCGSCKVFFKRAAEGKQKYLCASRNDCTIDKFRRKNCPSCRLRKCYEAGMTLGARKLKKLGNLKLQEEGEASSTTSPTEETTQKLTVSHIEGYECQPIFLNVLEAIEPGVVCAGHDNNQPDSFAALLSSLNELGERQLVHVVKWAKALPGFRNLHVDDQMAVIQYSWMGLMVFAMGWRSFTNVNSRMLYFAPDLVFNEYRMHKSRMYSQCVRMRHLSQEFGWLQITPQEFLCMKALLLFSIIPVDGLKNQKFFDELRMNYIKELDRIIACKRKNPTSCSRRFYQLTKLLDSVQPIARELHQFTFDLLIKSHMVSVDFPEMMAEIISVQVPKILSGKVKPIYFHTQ
Excerpt: MJC13 is described as an inhibitor of FKBP52-regulated AR activity (De Leon et. al. 2011. PNAS. 108 (29): 11878-83) by targeting the AR BF3 surface. A novel mechanism is disclosed by which FKBP52 and β-catenin interact to co-regulate AR activity in prostate cancer cells. […] Specific small molecules docked within the PPIase pocket affect proline-rich loop conformation and interactions. […] Thus, small molecules predicted to target the FKBP52 PPIase pocket have been identified in the disclosed embodiments.

[9] = test system: human prostate cancer cell lines; conditions: cited from earlier work
[10] = test system: prostate cancer xenograft; conditions: prostate cancer xenograft model; preliminary preclinical studies; cited from earlier work
[11] = variety of human prostate cancer cell lines

effect on β-catenin interaction with AR [8]	SMILES	inhibition of hormone-independent PSA secretion (ELISA) [1]	inhibition of AR-dependent (hormone-dependent) PSA expression/secretion (ELISA) ([1]; with hormone)	inhibition of FKBP52-regulated AR activity (effective concentration range) [2]	inhibition of AR-dependent PSA expression (ELISA) [3]	inhibition of hormone-independent PSA gene expression (qPCR) [4]	inhibition of hormone dependent proliferation (BrdU incorporation) [5]	inhibition of FKBP52-regulated GR activity (effective concentration range) [6]	inhibition of AR-mediated reporter gene expression [7]	effective drug concentrations (AR BF3 surface targeting) [9]	block of AR signaling [9, 11]	block of AR-dependent cancer cell proliferation [9, 11]	effects on tumor growth [10]
–	COc1ccc(/C=N/NC(=O)CSc2nc3ccccc3[nH]2)cc1 [GMC1, 2-(1H-benzimidizol-2-ylsulfanyl)-N—[(Z)-(4methoxyphenyl)methylideneamino]acetamide]	inhibits	inhibits	high nanomolar range	inhibits	inhibits	inhibits	high nanomolar range	most potent inhibition	–	–	–	–
abrogates	O=C(Nc1cccc(Cl)c1Cl)C1CCCCC1 [MJC13]	not	–	–	–	not	–	–	–	low micromolar range	effectively block	effectively block	impressive effects on tumor growth
